According to paper PMC10700347, “Semisynthesis of 5-O-ester derivatives of renieramycin T and their cytotoxicity against non-small-cell lung cancer cell lines” (Scientific Reports, 2023):
Like-named read-outs stand apart in the source and are kept apart here.

What was measured:
[1] = test system: H292 non-small-cell lung cancer cell line; experiment: cells; assay type: cell-based; conditions: Homo sapiens, NCI-H292, H292, MTT
Protocol: (§1) The in vitro cytotoxicity of all the semisynthesized esters and their precursors against H292 and H460 human NSCLC cell lines was analyzed based on the mitochondrial dehydrogenase activity via the MTT assay[43] (Table 1). The compounds were tested at doses of 1–250 nM. Cisplatin and doxorubicin, which are the standard chemotherapeutic drugs for the treatment of NSCLC, were used as positive controls. […] However, the extended use of 1 is limited by the concerns for unwanted necrosis, which is an unprogrammed form of cell death caused by the presence of two quinone moieties. […] The IC50 values of the 5-O-ester derivatives 3a, 3b, 3d, 3h, 3i, and 3k were in the same range as the mother compound 1.
(§2) The in vitro cytotoxicity of compounds 3a–3o, 4a, and 4b was determined against the H292 and H460 NSCLC cell lines by the MTT colorimetric assay. Each compound was dissolved in DMSO to prepare a 10 mM stock solution. Both the H292 and H460 cells were cultured in RPMI 1640 medium supplemented with 2 mM L-glutamine, 10% FBS, and 100 units/mL of penicillin–streptomycin at 37 °C under 5% CO2. The NSCLC cells were trypsinized and seeded with a density of 5 × 10^3 cells/well in a 96-well plate, followed by overnight incubation. Serial dilutions of the test compounds ranging from 1 to 250 nM were prepared in the presence of DMSO (< 0.2% v/v). […] After incubation, formazan crystals were solubilized by adding 100 µL of DMSO, and their absorbance was measured at 570 nm by a spectrophotometric microtiter plate reader (PerkinElmer Victor 3 1420 Multilabel Plate Counter). Cell viability was calculated as the percentage of nontreated control cells. The mean IC50 values were obtained from three independent experiments. Each experiment was conducted in triplicate with at least five concentrations of the tested compounds. The GraphPad Prism software (version 5) was used to calculate the average IC50 and standard deviation (S.D.) values for each experiment. Cisplatin and doxorubicin were used as the positive controls, while 0.2% DMSO served as the negative control.

[2] = test system: H460 non-small-cell lung cancer cell line; experiment: cells; assay type: cell-based; conditions: Homo sapiens, NCI-H460, H460, MTT
Protocol: as §1, §2

[3] = test system: dermal papilla (DP) cell line; experiment: MTT cell viability on normal cell line DP; assay type: cell-based; conditions: 72 h
Protocol: (§3) DP and BEAS-2B were seeded into 96-well plates at densities of 1 × 10^4 cells per well, while HaCaT cells were seeded at densities of 5 × 10^3 cells per well. The cells were allowed to adhere for 24 h. Subsequently, the cells were treated with various concentrations of compounds 3a–3o, 4a, and 4b at 72 h for DP cells and at 24 h for HaCaT and BEAS-2B cells. After the treatment period, cells were incubated with 0.5 mg/ml of MTT for 2 h. The resulting MTT product was measured at 570 nm using a spectrophotometric microplate reader. Cell viability was calculated by comparing the optical density (OD) measurements to those of the untreated control, and the results were expressed as a percentage.

[4] = test system: human keratinocyte (HaCaT) cell line; experiment: MTT cell viability on normal cell line HaCaT; assay type: cell-based; conditions: Homo sapiens, 24 h, read-out: IC50 ± S.D. HaCaT
Protocol: as §3

[5] = test system: non-tumorigenic bronchial epithelial (BEAS-2B) cell line; experiment: MTT cell viability on normal cell line BEAS-2B; assay type: cell-based; conditions: Homo sapiens, BEAS-2B normal cell line, 24 h, read-out: IC50 ± S.D. BEAS-2B
Protocol: as §3

H292 NSCLC cells [6] = experiment: Hoechst 33342/PI nuclear co-staining apoptosis and accidental necrosis assay, H292; assay type: cell-based, human; conditions: cisplatin-resistant H292, 7 h, 0–20 µM; statement for 1 at the highest concentration (20 µM)
Protocol: (§4) The anti-proliferative activity of compounds 1 and 3b against H292 and H460 cells were assessed across a range of concentrations (0–20 µM) under treatment at 10 and 24 h. […] The cytotoxic effect of 3b was closely resembled that of the parental compound 1 after 24 h treatment. According to their cytotoxic profiles at short treatment duration, the NSCLC cell lines were treated with various concentrations (0, 0.1, 1, 5, 10, and 20 µM) of compounds 1 and 3b, followed by Hoechst 33342 and PI staining to visualize morphological changes by fluorescence microscopy (Fig. 4C–F). The bright blue fluorescence of Hoechst 33342 indicated apoptosis, characterized by DNA condensation and fragmentation. In contrast, the red fluorescence emitted by propidium iodide (PI) indicated necrotic cell death. The percentage of apoptotic and necrotic cells was calculated based on the stained image.
(§5) NSCLC cells (H292 and H460) were seeded into a 96-well plate at a density of 1 × 10^4 cells/well for 24 h. Subsequently, the cells were treated with several concentrations of compounds 1 and 3b (0–20 µM) for 7 h. […] Visualization and imaging of the stained cells were carried out using a fluorescence microscope (Nikon ECLIPSE Ts2, Tokyo, Japan). […] The percentage of cell death was analyzed and reported.

H460 NSCLC cells [7] = experiment: Hoechst 33342/PI nuclear co-staining apoptosis and accidental necrosis assay, H460; assay type: cell-based, human; conditions: cisplatin-sensitive H460, 7 h, 0–20 µM
Protocol: as §4, §5

H292 NSCLC cells [8] = experiment: Annexin V-FITC/PI double staining flow cytometry, H292; assay type: cell-based, human; conditions: H292, 7 h; statement for 1 at 20 µM
Protocol: (§6) Apoptosis cell death was investigated following the manufacturer's protocol (ImmunoTools, Friesoythe, Germany) using FITC–labeled Annexin V/PI. Treated cells was cultured overnight in 24-well plates at a density of 5 × 10^4 cells/well. Subsequently, cells were treated with various concentrations of 1, and 3b (0, 0.1, 1, 5, 10, and 20 µM) for 7 h. After treatment, cells were collected, washed with cold PBS, and then suspended in binding buffer. Each cell suspension was stained with 2.5 µL of annexin V-FITC and 1 µL of PI. The mixture was vortexed, then incubated for 15 min at room temperature. Guava easyCyte flow cytometer (EMD Millipore, Hayward, CA, USA) was utilized to detect live, apoptotic, and necrotic cells. The modes of cell death were classified as necrotic (PI+), and apoptotic cell death, divided into early apoptotic (PI (-) Annexin-V (+)) and late apoptotic (PI (+) Annexin-V (+)).

H460 NSCLC cells [9] = experiment: Annexin V-FITC/PI double staining flow cytometry, H460; assay type: cell-based, human; conditions: H460, 7 h; statement for 1 at 20 µM
Protocol: as §6

[10] = 10 h, 0–20 µM, read-out: IC50 ± S.D. H292 10 h
[11] = 24 h, 0–20 µM, read-out: IC50 ± S.D. H292 24 h
[12] = 72 h, read-out: IC50 ± S.D. H292
[13] = 10 h, 0–20 µM, read-out: IC50 ± S.D. H460 10 h
[14] = 24 h, 0–20 µM, read-out: IC50 ± S.D. H460 24 h
[15] = 72 h, read-out: IC50 ± S.D. H460

| SMILES | IC50 [1, 10] [µM] | IC50 [1, 11] [µM] | IC50 [1, 12] [µM] | IC50 [2, 13] [µM] | IC50 [2, 14] [µM] | IC50 [2, 15] [µM] | IC50 [3] [nM] | IC50 [4] [nM] | IC50 [5] [nM] | Mode of cell death (apoptosis / accidental necrosis) by Hoechst 33342/PI staining (H292 NSCLC cells [6]) | Mode of cell death (apoptosis / accidental necrosis) by Hoechst 33342/PI staining (H460 NSCLC cells [7]) | Mode of cell death by annexin V-FITC/PI flow cytometric analysis (H292 NSCLC cells [8]) | Mode of cell death by annexin V-FITC/PI flow cytometric analysis (H460 NSCLC cells [9]) |
| --- | --- | --- | --- | --- | --- | --- | --- | --- | --- | --- | --- | --- | --- |
| C/C=C(/C)C(=O)OC[C@H]1c2c(c(OC(=O)CC)c(C)c3c2OCO3)C[C@H]2[C@H]3C4=C(C[C@@H]([C@H](C#N)N12)N3C)C(=O)C(C)=C(OC)C4=O [Compound 3b, 5-O-(3-propanoyl) ester of renieramycin T] | 17.6 ± 6.58 | 4.14 ± 0.84 | 0.0334 ± 0.00087 | 18.8 ± 0.4 | 7.32 ± 0.52 | 0.0339 ± 0.00195 | 23.6 ± 0.65 | 33.7 ± 9.43 | 90.2 ± 9.49 | morphological apoptosis with no detectable necrotic cells | induced apoptosis with minimal necrosis | early apoptosis with minimal necrosis | early apoptosis with minimal necrosis |
| C/C=C(/C)C(=O)OC[C@H]1C2=C(C[C@H]3[C@H]4C5=C(C[C@@H]([C@H](C#N)N13)N4C)C(=O)C(C)=C(OC)C5=O)C(=O)C(C)=C(OC)C2=O [Compound 1, Renieramycin M] | 4.92 ± 3.14 | 3.24 ± 0.8 | 0.0344 ± 0.0017 | 12 ± 2.73 | 4.13 ± 1 | 0.0356 ± 0.00182 | 7.07 ± 1.5 | 8.01 ± 0.53 | 75 ± 9.77 | induced both apoptosis and accidental necrosis | unwanted necrosis was observed in a dosed-dependent manner | necrotic cell death in both H292 and H460 cell lines in conjugation with late apoptosis | necrotic cell death in both H292 and H460 cell lines in conjugation with late apoptosis |
